Measured values from US8338414B2, “Immunosuppressive agent and anti-tumor agent comprising heterocyclic compound as active ingredient” (Zenyaku Kogyo KabushikiKaisha, priority 2005, dated 2012).

Experiments:
[1] = system: human peripheral blood mononuclear cells; assay: Proliferation inhibition assay for human peripheral blood mononuclear cells; type: cell-based; details: Homo sapiens, 72 h; PBMC, anti-CD3 and anti-CD28 antibody, 3 days, Alamar Blue
Outline: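 PBMC from healthy donors (1×10^5 cells/mL) in RPMI 1640 with 10% FBS were stimulated with plate-bound anti-CD3 plus anti-CD28 (1 μg/mL). Serially diluted compounds were added and cells were cultured 3 days at 37 °C. Alamar Blue was then added for 1 day and fluorescence was read at ex 530/em 590 nm.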

[2] = system: collagen-induced arthritis; assay: Collagen-induced arthritis inhibitory action; type: in vivo, mouse; details: DBA1 mice
Description: Bovine type II collagen suspended in Freund's complete adjuvant was intradermally administered to the base of tail of DBA1 male mice (7 weeks old, purchased from Charles River Laboratories Japan Inc.) on day 1 and day 21. Then, from day 28 when 50% of the mice developed arthritis, the test substances suspended in 0.5% hydroxypropylcellulose (HPC) were orally administered on consecutive days. Here, the efficacy was evaluated by scoring the arthritis. Specifically, for each paw, the degree of arthritis was evaluated according to: no symptoms: 0; redness or swelling of one joint: 1; redness or swelling for two or more joints: 2; redness or swelling over the entire paw: 3; and maximum redness or swelling over the entire paw: 4.

U 937 cells = assay: Proliferation inhibitory activity on hematologic neoplasm cells, U937; type: cell-based; details: Homo sapiens, U-937, 72 h; 3 days, Alamar Blue
fulminant hepatitis = assay: Fulminant hepatitis model (galactosamine and LPS); type: in vivo, mouse; details: BALB/c mice, galactosamine 800 mg/kg and LPS 110 μg/kg i.p.
Description: BALB/c male mice (7 weeks old, purchased from Charles River Laboratories Japan Inc.) were used in the experiment. After having orally administered the test substances suspended in 5% HPC, galactosamine (800 mg/kg) and LPS (110 μg/kg) were intraperitoneally administered. Then, survival rates at 72 hours after administration were obtained.

With `FC(F)c1nc2ccccc2n1-c1nc(N2CCOCC2)nc(N2CCOCC2)n1` [Compound 4, 2-(2-Difluoromethylbenzimidazol-1-yl)-4,6-dimorpholino-1,3,5-triazine] the IC50 [1] was 312 nM, the “arthritis score, difference versus control group” value ([2]; 50 mg/kg oral, after day 44 (conditions exacerbated after day 40)) was “no significant difference was recognized in comparison with the control group” and the “arthritis score, efficacy versus control group” value ([2]; 50 or 100 mg/kg oral, after day 30, Dunnett's test P<0.05) was “a statistically significant efficacy was recognized”. The “progression of collagen-induced arthritis (arthritis score)” value ([2]; oral on consecutive days from day 28) was “inhibited the progression of the collagen-induced arthritis in a dose-dependent manner”, the IC50 (U 937 cells) was 3240 nM and the “Survival Rate after 72 Hours” value (fulminant hepatitis; 50 mg/kg oral) was 60%. For the same compound, the “Survival Rate after 72 Hours” value (fulminant hepatitis; 100 mg/kg oral) was 83%.
